Test results reported in US20250019382A1, “NOVEL INHIBITORS OF CYCLIN-DEPENDENT KINASES” (Origenis Gmbh, priority 2021, published 2025).

biological target: T1, CDK9/CyclinT1 (Homo sapiens, UniProt P50750); assay: CDK9/T1 ADPGlo kinase assay; assay type: biochemical; conditions: CDK9/CyclinT1 6 nM, ATP 10 microM, PDKtide 40 microM, 120 min RT
T1 construct: purchased ProQinase/Reaction Biology, USA #0371-0345-1
Procedure: The testing compound was evaluated in 12 concentrations in a 1:3 dilution series, starting from 5microM as the highest concentration.
In a white 384 microplate (Greiner bio-one, Austria #784904,) with 2 microL of 3-fold concentrated CDK9/CyclinT1 (ProQinase/Reaction Biology, USA #0371-0345-1, LOT.: 012), final concentration (f.c.) 6 nM, in 1×kinase buffer, 2 microL of compound (3× fold concentrated in f.c. 1.66% DMSO/H2O) was added and incubated at Room Temperature (RT) for 10 min. Then 2 microL of Substrate/ATP-Mix (3×PDKtide f.c. 40 microM, SignalChem Biotech, Canada via Biozol, Eching, Germany #P10-58, LOT.: L2230-7 and 3×UltraPure ATP f.c. 10 microM (ADP Glo Kinase assay, Promega GmbH, Germany #V9102)) were added, mixed and incubated for 120 min at RT.
After incubation time, 5 microL of ADP Glo reagent (ready to use, ADP Glo Kinase assay, Promega GmbH, Germany #V9102) were added, mixed and incubated for 40 min at RT.
In the last step, 10 microL of ADP Glo Detection reagent (ready to use, ADP Glo Kinase assay, Promega GmbH, Germany #V9102) were added, mixed and incubated for 30 min at RT.
GloMax Discover GM3000 Reader (Promega GmbH, Germany 9700000249) was used for the readout.
The inhibitor concentration was plotted against the luminescence to determine the IC50 using XLFit 5.5 (IDBS, Guildford) to fit to a sigmoidal dose response curve with a variable slope.

T1 sequence (P50750 whole entry): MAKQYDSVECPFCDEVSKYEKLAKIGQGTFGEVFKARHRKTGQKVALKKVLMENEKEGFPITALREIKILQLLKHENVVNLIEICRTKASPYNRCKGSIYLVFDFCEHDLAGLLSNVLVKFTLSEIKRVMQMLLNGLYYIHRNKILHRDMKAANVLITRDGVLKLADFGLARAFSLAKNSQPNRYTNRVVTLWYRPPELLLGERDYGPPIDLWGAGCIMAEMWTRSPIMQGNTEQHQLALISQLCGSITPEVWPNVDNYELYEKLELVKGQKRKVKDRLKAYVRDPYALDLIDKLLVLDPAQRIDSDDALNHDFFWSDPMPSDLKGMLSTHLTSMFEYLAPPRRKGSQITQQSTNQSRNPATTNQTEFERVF
T1 sequence (O60563 whole entry partner): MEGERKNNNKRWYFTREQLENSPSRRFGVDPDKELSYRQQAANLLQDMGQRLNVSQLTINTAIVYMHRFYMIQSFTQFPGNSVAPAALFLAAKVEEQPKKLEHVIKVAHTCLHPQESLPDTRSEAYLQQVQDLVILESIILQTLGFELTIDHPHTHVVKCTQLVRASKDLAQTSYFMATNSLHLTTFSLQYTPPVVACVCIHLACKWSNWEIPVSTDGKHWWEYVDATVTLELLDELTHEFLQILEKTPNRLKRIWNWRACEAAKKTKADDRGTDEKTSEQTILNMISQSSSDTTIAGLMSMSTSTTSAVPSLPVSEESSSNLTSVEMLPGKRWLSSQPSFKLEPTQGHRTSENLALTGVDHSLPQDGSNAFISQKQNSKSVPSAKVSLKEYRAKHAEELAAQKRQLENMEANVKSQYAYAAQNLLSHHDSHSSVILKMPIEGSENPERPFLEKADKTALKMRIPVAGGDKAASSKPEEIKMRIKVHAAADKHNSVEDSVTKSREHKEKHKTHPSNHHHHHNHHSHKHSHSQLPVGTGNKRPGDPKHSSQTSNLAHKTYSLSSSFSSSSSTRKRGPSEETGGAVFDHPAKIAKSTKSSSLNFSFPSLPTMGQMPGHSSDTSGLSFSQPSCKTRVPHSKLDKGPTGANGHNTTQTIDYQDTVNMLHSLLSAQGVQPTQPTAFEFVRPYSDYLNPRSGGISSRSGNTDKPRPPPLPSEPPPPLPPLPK

SMILES | IC50
CCOc1cc(Nc2nc(-c3c(F)cccc3F)nc3ccnn23)ccc1C1=CCN(C)CC1 [Example #14, 2-(2,6-difluorophenyl)-N-(3-ethoxy-4-(1-methyl-1,2,3,6-tetrahydropyridin-4-yl)phenyl)pyrazolo[1,5-a][1,3,5]triazin-4-amine] | < 1000 nM
CCOc1cc(Nc2nc(-c3c(F)cccc3Cl)nc3ccnn23)ccc1C1=CCN(C)CC1 [Example #16, 2-(2-chloro-6-fluorophenyl)-N-(3-ethoxy-4-(1-methyl-1,2,3,6-tetrahydropyridin-4-yl)phenyl)pyrazolo[1,5-a][1,3,5]triazin-4-amine] | < 1000 nM
O=C(NCC(F)(F)F)c1ccc(Nc2nc(-c3c(F)cccc3F)nc3ccnn23)cc1 [Example #26, 4-((2-(2,6-difluorophenyl)pyrazolo[1,5-a][1,3,5]triazin-4-yl)amino)-N-(2,2,2-trifluoroethyl)benzamide] | < 1000 nM
CC(C)(C)NC(=O)c1ccc(Nc2nc(-c3c(F)cccc3F)nc3ccnn23)cc1 [Example #27, N-(tert-butyl)-4-((2-(2,6-difluorophenyl)pyrazolo[1,5-a][1,3,5]triazin-4-yl)amino)benzamide] | < 1000 nM
CCNC(=O)c1ccc(Nc2nc(-c3c(F)cccc3F)nc3ccnn23)cc1 [Example #28, 4-((2-(2,6-difluorophenyl)pyrazolo[1,5-a][1,3,5]triazin-4-yl)amino)-N-ethylbenzamide] | < 1000 nM
O=C(NC1CCOCC1)c1ccc(Nc2nc(-c3c(F)cccc3F)nc3ccnn23)cc1 [Example #29, 4-((2-(2,6-difluorophenyl)pyrazolo[1,5-a][1,3,5]triazin-4-yl)amino)-N-(tetrahydro-2H-pyran-4-yl)benzamide] | < 1000 nM
CCOc1cc(Nc2nc(-c3c(F)cccc3Cl)nc3ccnn23)ccc1N1CCN(C)CC1 [Example #32, 2-(2-chloro-6-fluorophenyl)-N-(3-ethoxy-4-(4-methylpiperazin-1-yl)phenyl)pyrazolo[1,5-a][1,3,5]triazin-4-amine] | < 1000 nM
CCOc1cc(Nc2nc(-c3c(F)cccc3Cl)nc3ccnn23)ccc1C1=CCN(C2CC2)CC1 [Example #34, 2-(2-chloro-6-fluorophenyl)-N-(4-(1-cyclopropyl-1,2,3,6-tetrahydropyridin-4-yl)-3-ethoxyphenyl)pyrazolo[1,5-a][1,3,5]triazin-4-amine] | < 1000 nM
CC(C)(C#N)n1cc(Nc2nc(-c3c(F)cccc3Cl)nc3ccnn23)cn1 [Example #36, 2-(4-((2-(2-chloro-6-fluorophenyl)pyrazolo[1,5-a][1,3,5]triazin-4-yl)amino)-1H-pyrazol-1-yl)-2-methylpropanenitrile] | < 1000 nM
Fc1cccc(F)c1-c1nc(Nc2ccc(N3CCOCC3)cc2)n2nccc2n1 [Example #37, 2-(2,6-difluorophenyl)-N-(4-morpholinophenyl)pyrazolo[1,5-a][1,3,5]triazin-4-amine] | < 1000 nM
CN1CCN(c2ccc(Nc3nc(-c4c(F)cccc4F)nc4ccnn34)cc2)CC1 [Example #38, 2-(2,6-difluorophenyl)-N-(4-(4-methylpiperazin-1-yl)phenyl)pyrazolo[1,5-a][1,3,5]triazin-4-amine] | < 1000 nM
CC(=O)N1CCN(c2ccc(Nc3nc(-c4c(F)cccc4F)nc4ccnn34)cc2)CC1 [Example #39, 1-(4-(4-((2-(2,6-difluorophenyl)pyrazolo[1,5-a][1,3,5]triazin-4-yl)amino)phenyl)piperazin-1-yl)ethan-1-one] | < 1000 nM
N#Cc1cc(Nc2nc(-c3c(F)cccc3F)nc3ccnn23)ccc1N1CCOCC1 [Example #42, 5-((2-(2,6-difluorophenyl)pyrazolo[1,5-a][1,3,5]triazin-4-yl)amino)-2-morpholinobenzonitrile] | < 1000 nM
Fc1cccc(F)c1-c1nc(Nc2ccc(N3CCC(N4CCOCC4)CC3)cc2)n2nccc2n1 [Example #43, 2-(2,6-difluorophenyl)-N-(4-(4-morpholinopiperidin-1-yl)phenyl)pyrazolo[1,5-a][1,3,5]triazin-4-amine] | < 1000 nM
CN1CCN(C2CCN(c3ccc(Nc4nc(-c5c(F)cccc5F)nc5ccnn45)cc3)CC2)CC1 [Example #46, 2-(2,6-difluorophenyl)-N-(4-(4-(4-methylpiperazin-1-yl)piperidin-1-yl)phenyl)pyrazolo[1,5-a][1,3,5]triazin-4-amine] | < 1000 nM
CC(C)(C)N1CCN(c2ccc(Nc3nc(-c4ccccc4F)nc4ccnn34)cc2)CC1 [Example #54, N-(4-(4-(tert-butyl)piperazin-1-yl)phenyl)-2-(2-fluorophenyl)pyrazolo[1,5-a][1,3,5]triazin-4-amine] | < 1000 nM
CN1CCN(C2CCN(c3ccc(Nc4nc(-c5ccccc5F)nc5ccnn45)cc3)CC2)CC1 [Example #59, 2-(2-fluorophenyl)-N-(4-(4-(4-methylpiperazin-1-yl)piperidin-1-yl)phenyl)pyrazolo[1,5-a][1,3,5]triazin-4-amine] | < 1000 nM
COc1cc(Nc2nc(-c3c(F)cccc3F)nc3ccnn23)ccc1N1CCC(N2CCN(C)CC2)CC1 [Example #62, 2-(2,6-difluorophenyl)-N-(3-methoxy-4-(4-(4-methylpiperazin-1-yl)piperidin-1-yl)phenyl)pyrazolo[1,5-a][1,3,5]triazin-4-amine] | < 1000 nM
COc1ccc(Nc2nc(-c3c(F)cccc3F)nc3ccnn23)cc1OC [Example #65, 2-(2,6-difluorophenyl)-N-(3,4-dimethoxyphenyl)pyrazolo[1,5-a][1,3,5]triazin-4-amine] | < 1000 nM

More lines, now with the values ahead:

IC50 | SMILES
< 1000 nM | CCOc1cc(Nc2nc(-c3c(F)cccc3F)nc3ccnn23)ccc1N1CCN(C)CC1 [Example #8, 2-(2,6-difluorophenyl)-N-(3-ethoxy-4-(4-methylpiperazin-1-yl)phenyl)pyrazolo[1,5-a][1,3,5]triazin-4-amine]
< 1000 nM | CCOc1cc(Nc2nc(-c3c(Cl)cccc3Cl)nc3ccnn23)ccc1N1CCN(C)CC1 [Example #12, 2-(2,6-dichlorophenyl)-N-(3-ethoxy-4-(4-methylpiperazin-1-yl)phenyl)pyrazolo[1,5-a][1,3,5]triazin-4-amine]
< 1000 nM | CCOc1cc(Nc2nc(-c3c(F)cccc3Cl)nc3ccnn23)ccc1C1CCN(C)CC1 [Example #17, 2-(2-chloro-6-fluorophenyl)-N-(3-ethoxy-4-(1-methylpiperidin-4-yl)phenyl)pyrazolo[1,5-a][1,3,5]triazin-4-amine]
< 1000 nM | CCOc1cc(Nc2nc(-c3c(F)cccc3F)nc3ccnn23)ccc1C1CCN(C)CC1 [Example #20, 2-(2,6-difluorophenyl)-N-(3-ethoxy-4-(1-methylpiperidin-4-yl)phenyl)pyrazolo[1,5-a][1,3,5]triazin-4-amine]
< 1000 nM | O=C(NCC(F)(F)F)c1ccc(Nc2nc(-c3c(F)cccc3Cl)nc3ccnn23)cc1 [Example #22, 4-((2-(2-chloro-6-fluorophenyl)pyrazolo[1,5-a][1,3,5]triazin-4-yl)amino)-N-(2,2,2-trifluoroethyl)benzamide]
< 1000 nM | CC(C)(C)NC(=O)c1ccc(Nc2nc(-c3c(F)cccc3Cl)nc3ccnn23)cc1 [Example #23, N-(tert-butyl)-4-((2-(2-chloro-6-fluorophenyl)pyrazolo[1,5-a][1,3,5]triazin-4-yl)amino)benzamide]
< 1000 nM | CCNC(=O)c1ccc(Nc2nc(-c3c(F)cccc3Cl)nc3ccnn23)cc1 [Example #24, 4-((2-(2-chloro-6-fluorophenyl)pyrazolo[1,5-a][1,3,5]triazin-4-yl)amino)-N-ethylbenzamide]
< 1000 nM | O=C(NC1CCOCC1)c1ccc(Nc2nc(-c3c(F)cccc3Cl)nc3ccnn23)cc1 [Example #25, 4-((2-(2-chloro-6-fluorophenyl)pyrazolo[1,5-a][1,3,5]triazin-4-yl)amino)-N-(tetrahydro-2H-pyran-4-yl)benzamide]
< 200 nM | CC(C)(C)N1CCN(c2ccc(Nc3nc(-c4c(F)cccc4F)nc4ccnn34)cc2)CC1 [Example #45, N-(4-(4-(tert-butyl)piperazin-1-yl)phenyl)-2-(2,6-difluorophenyl)pyrazolo[1,5-a][1,3,5]triazin-4-amine]
< 200 nM | CN1CCC(N2CCC(n3cc(Nc4nc(-c5c(F)cccc5F)nc5ccnn45)cn3)CC2)CC1 [Example #66, 2-(2,6-difluorophenyl)-N-(1-(1′-methyl-[1,4′-bipiperidin]-4-yl)-1H-pyrazol-4-yl)pyrazolo[1,5-a][1,3,5]triazin-4-amine]
< 200 nM | Fc1cccc(F)c1-c1nc(Nc2cnn(C3CCN(C4CCOCC4)CC3)c2)n2nccc2n1 [Example #67, 2-(2,6-difluorophenyl)-N-(1-(1-(tetrahydro-2H-pyran-4-yl)piperidin-4-yl)-1H-pyrazol-4-yl)pyrazolo[1,5-a][1,3,5]triazin-4-amine]
< 200 nM | Fc1cccc(F)c1-c1nc(Nc2cnn([C@H]3CC[C@H](N4CCOCC4)CC3)c2)n2nccc2n1 [Example #68, 2-(2,6-difluorophenyl)-N-(1-((1r,4r)-4-morpholinocyclohexyl)-1H-pyrazol-4-yl)pyrazolo[1,5-a][1,3,5]triazin-4-amine]
